Measured values: patent US20240218022A1, “ANTI-VISTA MACROCYCLIC PEPTIDES AND COMPOSITIONS” (BRISTOL-MYERS SQUIBB COMPANY, priority 2022, published 2024)
Where two headings read alike, the source gives them in different places. Values belong to the molecule of their own block, whether it stands above or below them. Starred links: 1 amine or outer side, 2 acyl side, 3 side chain; linkers in the order of their positions; H or OH if unused. Positions of bridges follow the written chain, without caps; N, C: chain ends. Non-standard residues stand in square brackets, D forms with d. Residues, ends and D or L forms follow the SMILES beside them. ξ: configuration not given here. Phe(4-CF3) = N[C@@H](Cc1ccc(C(F)(F)F)cc1)C(=O)O; N(3-phenylpropyl)Gly = O=C(O)CNCCCc1ccccc1; Phe(3-Me) = Cc1cccc(C[C@H](N)C(=O)O)c1; γGlu = O=C(O)[C@H](CCC(=O)[*:2])N[*:1]; 2Nal = N[C@@H](Cc1ccc2ccccc2c1)C(=O)O; βAsp = O=C(O)[C@H](CC(=O)[*:2])N[*:1]; NMeR = CN[C@@H](CCCNC(=N)N)C(=O)O; NMeThr(3ξ) = CN[C@H](C(=O)O)C(C)O; Tic = O=C(O)[C@@H]1Cc2ccccc2CN1; Cit = NC(=O)NCCC[C@H](N)C(=O)O; Ahp(2) = CCCCC[C@H](N)C(=O)O; NMeNle = CCCC[C@H](NC)C(=O)O; Tle = CC(C)(C)[C@H](N)C(=O)O; NMeV = CN[C@H](C(=O)O)C(C)C; NHexGly = CCCCCCNCC(=O)O; Nle = CCCC[C@H](N)C(=O)O; Orn = NCCC[C@H](N)C(=O)O; Aun = NCCCCCCCCCCC(=O)O; Dab = NCC[C@H](N)C(=O)O; AEEA = NCCOCCOCC(=O)O

Biological target: T1, mouse VISTA (mVISTA) (Mus musculus, UniProt Q9D659)
T1 construct: expressed in transfected cells; host or cells: Human embryonic kidney 293T cells
T1 sequence (Q9D659 33-308): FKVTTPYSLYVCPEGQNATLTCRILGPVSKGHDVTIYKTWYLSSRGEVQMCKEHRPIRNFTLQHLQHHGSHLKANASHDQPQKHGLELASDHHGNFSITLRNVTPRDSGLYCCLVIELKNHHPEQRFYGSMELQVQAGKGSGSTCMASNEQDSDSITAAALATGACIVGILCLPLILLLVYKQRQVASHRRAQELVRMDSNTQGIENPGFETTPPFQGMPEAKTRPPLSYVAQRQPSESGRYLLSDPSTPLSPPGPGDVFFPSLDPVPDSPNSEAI
Test: Cell-Based Binding High-Content Assay For mVISTA (HC CBA mVISTA)
Summary of the method: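 mVISTA-293T, 4,000 cells/well; cpd ± washout step; biotin-peptide 2 nM final, 30 min RT; SA-Alexa 647 30 min; formaldehyde/Hoechst fix; HCS imaging; 4PL IC50.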

[1] = 293T cells expressing mouse VISTA, competition with biotinylated peptide (2 nM), read-out: HC CBA mVISTA IC50
[2] = cell-based binding high-content assay, mVISTA, read-out: HC CBA miPr ISTA IC50

- IC50 [1]: 3.7 nM
SMILES: CCCCCCN1CC(=O)N[C@@H](Cc2ccc(O)cc2)C(=O)N[C@@H](CCCCC)C(=O)N[C@@H](CC(N)=O)C(=O)N[C@@H](CCCNC(=N)N)C(=O)N[C@@H](CC(C)C)C(=O)N[C@@H](CCCCC)C(=O)N2CCC[C@H]2C(=O)N[C@@H](C(C)C)C(=O)N[C@@H](CO)C(=O)N[C@H](C(=O)NCC(=O)O)CSCC(=O)N[C@@H](Cc2ccccc2)C(=O)N[C@@H](Cc2ccc(O)cc2)C(=O)N[C@@H](CC(=O)O)C1=O [Example 1034] ({CH2CO}-FYD[NHexGly]Y[Ahp(2)]NRL[Ahp(2)]PVSCG-OH; thioether N-14)

- IC50 (cell-based binding high-content assay, mVISTA, read-out: HC CBA miPrISTA IC50): 41.7 nM
SMILES: CCCCCCN1CC(=O)N[C@@H](Cc2ccc(O)cc2)C(=O)N[C@@H](CC(C)C)C(=O)N[C@@H](CC(N)=O)C(=O)N[C@@H](CCCNC(=N)N)C(=O)N(C)[C@@H](CCCC)C(=O)N[C@@H](CCCCC)C(=O)N2CCC[C@H]2C(=O)N[C@@H](C(C)(C)C)C(=O)N[C@@H](CC(=O)O)C(=O)N[C@H](C(=O)N[C@@H](CCN)C(=O)NCCOCCOCC(=O)N[C@@H](CC(=O)O)C(=O)NCCOCCOCC(=O)NCCCCCCCCCCC(=O)O)CSCC(=O)N[C@@H](Cc2ccccc2)C(=O)N[C@@H](Cc2ccc(O)cc2)C(=O)N[C@@H](CC(=O)O)C1=O [compound 2085] ({CH2CO}-FYD[NHexGly]YLNR[NMeNle][Ahp(2)]P[Tle]DC[Dab][AEEA]D[AEEA][Aun]-OH; thioether N-14)

- IC50 (read-out: HC CBA mVISTA IC50): 12.3 nM
SMILES: CCCCCCN1CC(=O)N[C@@H](Cc2ccc(O)cc2)C(=O)N[C@@H](CCCC)C(=O)N[C@@H](CC(N)=O)C(=O)N[C@@H](CCCNC(=N)N)C(=O)N2Cc3ccccc3C[C@H]2C(=O)N[C@@H](CCCCC)C(=O)N2CCC[C@H]2C(=O)N[C@@H](C(C)C)C(=O)N[C@@H](CC(=O)O)C(=O)N[C@H](C(=O)NCC(N)=O)CSCC(=O)N[C@@H](Cc2ccccc2)C(=O)N[C@@H](Cc2c[nH]c3ccccc23)C(=O)N[C@@H](CC(=O)O)C1=O [Example 1414] ({CH2CO}-FWD[NHexGly]Y[Nle]NR[Tic][Ahp(2)]PVDCG-NH2; thioether N-14)

- IC50 [1]: 37.8 nM
SMILES: CCCCC[C@@H]1NC(=O)[C@H](CCCC)N(C)C(=O)[C@H](CCCN)NC(=O)[C@H](CC(N)=O)NC(=O)[C@H](CC(C)C)NC(=O)[C@H](Cc2ccc(O)cc2)NC(=O)CN(CCCc2ccccc2)C(=O)[C@H](CC(=O)O)NC(=O)[C@H](Cc2ccc(O)cc2)NC(=O)[C@H](Cc2ccccc2)NC(=O)CSC[C@@H](C(=O)NCC(N)=O)NC(=O)[C@H](CO)NC(=O)[C@H](C(C)(C)C)NC(=O)[C@@H]2CCCN2C1=O [Example 1084] ({CH2CO}-FYD[N(3-phenylpropyl)Gly]YLN[Orn][NMeNle][Ahp(2)]P[Tle]SCG-NH2; thioether N-14)

- IC50 (cell-based binding high-content assay, mVISTA, the 15th table, read-out: HC CBA mVISTA IC50): 12 nM
SMILES: CCCCCCN1CC(=O)N[C@@H](Cc2ccc(O)cc2)C(=O)N[C@@H](CCCC)C(=O)N[C@@H](CC(N)=O)C(=O)N[C@@H](CCCNC(=N)N)C(=O)N(C)[C@@H](CCCNC(=N)N)C(=O)N[C@@H](CCCCC)C(=O)N2CCC[C@H]2C(=O)N[C@@H](C(C)C)C(=O)N[C@@H](CC(=O)O)C(=O)N[C@H](C(=O)NCC(=O)O)CSCC(=O)N[C@@H](Cc2ccc3ccccc3c2)C(=O)N[C@@H](Cc2c[nH]c3ccccc23)C(=O)N[C@@H](CC(=O)O)C1=O [compound 1258] ({CH2CO}-[2Nal]WD[NHexGly]Y[Nle]NR[NMeR][Ahp(2)]PVDCG-OH; thioether N-14)

- IC50 (cell-based binding high-content assay, read-out: HC CBA miPrISTA IC50): 39.1 nM
SMILES: CCCCCCN1CC(=O)N[C@@H](Cc2ccc(O)cc2)C(=O)N[C@@H](CCCC)C(=O)N[C@@H](CC(N)=O)C(=O)N[C@@H](CCCNC(=N)N)C(=O)N(C)[C@@H](CCCC)C(=O)N[C@@H](CCCCC)C(=O)N2CCC[C@H]2C(=O)N[C@@H](C(C)C)C(=O)N[C@@H](CC(=O)O)C(=O)N[C@H](C(=O)NCCOCCOCC(=O)N[C@@H](CC(=O)O)C(=O)NCCOCCOCC(=O)NCCCCCCCCCCC(=O)O)CSCC(=O)N[C@@H](Cc2ccc3ccccc3c2)C(=O)N[C@@H](Cc2c[nH]c3ccccc23)C(=O)N[C@@H](CC(=O)O)C1=O (stereo in doubt) [compound 2290]

- IC50 (read-out: HC CBA mVISTA IC50): 34.5 nM
SMILES: CCCCCCN1CC(=O)N[C@@H](Cc2ccc(O)cc2)C(=O)N[C@@H](CCCC)C(=O)N[C@@H](CC(=O)O)C(=O)N[C@@H](CCCNC(=N)N)C(=O)N(C)[C@@H](CCCC)C(=O)N[C@@H](CCCCC)C(=O)N2CCC[C@H]2C(=O)N[C@@H](C(C)C)C(=O)N[C@@H](CC(=O)O)C(=O)N[C@H](C(=O)N[C@@H](CO)C(N)=O)CSCC(=O)N[C@@H](Cc2ccccc2)C(=O)N[C@@H](Cc2c[nH]c3ccccc23)C(=O)N[C@@H](CC(=O)O)C1=O [Example 1407] ({CH2CO}-FWD[NHexGly]Y[Nle]DR[NMeNle][Ahp(2)]PVDCS-NH2; thioether N-14)

- IC50 [2]: 49 nM
SMILES: CCCCCCN1CC(=O)N[C@@H](Cc2ccc(O)cc2)C(=O)N[C@@H](CC(C)C)C(=O)N[C@@H](CC(N)=O)C(=O)N[C@@H](CCCNC(=N)N)C(=O)N(C)[C@@H](C(C)O)C(=O)N[C@@H](CCCCC)C(=O)N2CCC[C@H]2C(=O)N[C@@H](C(C)(C)C)C(=O)N[C@@H](CO)C(=O)N[C@H](C(=O)N[C@@H](CC(=O)NCCOCCOCC(=O)N[C@@H](CC(=O)O)C(=O)NCCOCCOCC(=O)NCCCCCCCCCCC(=O)O)C(=O)O)CSCC(=O)N[C@@H](Cc2ccccc2)C(=O)N[C@@H](Cc2ccc(O)cc2)C(=O)N[C@@H](CC(=O)O)C1=O (stereo partly shown) [compound 2036] ({CH2CO}-FYD[NHexGly]YLNR[NMeThr(3ξ)][Ahp(2)]P[Tle]SC[βAsp][AEEA]D[AEEA][Aun]-OH; thioether N-14)

- IC50 (read-out: HC CBA mVISTA IC50): 33.5 nM
SMILES: CCCCCCN1CC(=O)N[C@@H](Cc2ccc(O)cc2)C(=O)N[C@@H](CC(C)C)C(=O)N[C@@H](CC(N)=O)C(=O)N[C@@H](CCCNC(=N)N)C(=O)N[C@@H](CC(C)C)C(=O)N[C@@H](CCCCC)C(=O)N2CCC[C@H]2C(=O)N[C@@H](C(C)C)C(=O)N[C@@H](C(C)C)C(=O)N[C@H](C(=O)NCCOCCOCC(=O)N[C@@H](CCC(=O)NCCOCCOCC(=O)NCCCCCCCCCCC(=O)O)C(=O)O)CSCC(=O)N[C@@H](Cc2ccccc2)C(=O)N[C@@H](Cc2cccc(C)c2)C(=O)N[C@@H](CC(=O)O)C1=O [compound 2221] ({CH2CO}-F[Phe(3-Me)]D[NHexGly]YLNRL[Ahp(2)]PVVC[AEEA][γGlu][AEEA][Aun]-OH; thioether N-14)

- IC50 (cell-based binding high-content assay, mVISTA, the 16th table, read-out: HC CBA mVISTA IC50): 9 nM
SMILES: CCCCCCN1CC(=O)N[C@@H](Cc2ccc(O)cc2)C(=O)N[C@@H](CCCC)C(=O)N[C@@H](CC(=O)O)C(=O)N[C@@H](CCCNC(N)=O)C(=O)N(C)[C@@H](CCCC)C(=O)N[C@@H](CCCCC)C(=O)N2CCC[C@H]2C(=O)N[C@@H](C(C)C)C(=O)N[C@@H](CC(=O)O)C(=O)N[C@H](C(=O)N[C@@H](CC(=O)O)C(N)=O)CSCC(=O)N[C@@H](Cc2ccc3ccccc3c2)C(=O)N[C@@H](Cc2ccc(O)cc2)C(=O)N[C@@H](CC(=O)O)C1=O [Ex 1265] ({CH2CO}-[2Nal]YD[NHexGly]Y[Nle]D[Cit][NMeNle][Ahp(2)]PVDCD-NH2; thioether N-14)

- IC50 (the 20th table, scaffold drawing 23, read-out: HC CBA mVISTA IC50): 5 nM
SMILES: CCCCCCN1CC(=O)N[C@@H](Cc2ccc(O)cc2)C(=O)N[C@@H](CCCC)C(=O)N[C@@H](CC(N)=O)C(=O)N[C@@H](CCCNC(=N)N)C(=O)N[C@@H](CC(C)C)C(=O)N[C@@H](CCCCC)C(=O)N2CCC[C@H]2C(=O)N[C@@H](C(C)C)C(=O)N[C@@H](CC(=O)O)C(=O)N[C@H](C(=O)NCC(=O)O)CSCC(=O)N[C@@H](Cc2ccc(C(F)(F)F)cc2)C(=O)N[C@@H](Cc2ccc(O)cc2)C(=O)N[C@@H](CC(=O)O)C1=O [compound 1461] ({CH2CO}-[Phe(4-CF3)]YD[NHexGly]Y[Nle]NRL[Ahp(2)]PVDCG-OH; thioether N-14)

- IC50 (read-out: HC CBA mVISTA IC50): 38.9 nM
SMILES: CCCCCCN1CC(=O)N[C@@H](Cc2ccc(O)cc2)C(=O)N[C@@H](CCCC)C(=O)N[C@@H](CC(N)=O)C(=O)N[C@@H](CCCNC(=N)N)C(=O)N[C@@H](CC(C)C)C(=O)N[C@@H](CCCCC)C(=O)N2CCC[C@H]2C(=O)N[C@@H](C(C)(C)C)C(=O)N[C@@H](CO)C(=O)N[C@H](C(=O)NCCOCCOCC(=O)N[C@@H](CCC(=O)NCCOCCOCC(=O)NCCCCCCCCCCC(=O)O)C(=O)O)CSCC(=O)N[C@@H](Cc2ccccc2)C(=O)N[C@@H](Cc2c[nH]c3ccccc23)C(=O)N[C@@H](CC(=O)O)C1=O [compound 2243] ({CH2CO}-FWD[NHexGly]Y[Nle]NRL[Ahp(2)]P[Tle]SC[AEEA][γGlu][AEEA][Aun]-OH; thioether N-14)

- IC50 [2]: 29.7 nM
SMILES: CCCCCCN1CC(=O)N[C@@H](Cc2ccc(O)cc2)C(=O)N[C@@H](CC(C)C)C(=O)N[C@@H](CC(N)=O)C(=O)N[C@@H](CCCNC(=N)N)C(=O)N(C)[C@@H](C(C)C)C(=O)N[C@@H](CCCCC)C(=O)N2CCC[C@H]2C(=O)N[C@@H](C(C)(C)C)C(=O)N[C@@H](CO)C(=O)N[C@H](C(=O)N[C@@H](CC(=O)NCCOCCOCC(=O)N[C@@H](CC(=O)O)C(=O)NCCOCCOCC(=O)NCCCCCCCCCCC(=O)O)C(=O)O)CSCC(=O)N[C@@H](Cc2ccccc2)C(=O)N[C@@H](Cc2ccc(O)cc2)C(=O)N[C@@H](CC(=O)O)C1=O [compound 2041] ({CH2CO}-FYD[NHexGly]YLNR[NMeV][Ahp(2)]P[Tle]SC[βAsp][AEEA]D[AEEA][Aun]-OH; thioether N-14)
